These results are taken from patent publication EP0728012B1, “NOVEL GnRH ANALOGUES WITH ANTITUMOUR EFFECTS AND PHARMACEUTICAL COMPOSITIONS THEREOF” (Lovas, Sandor, priority 1994, dated 1996).

Non-standard residues stand in square brackets, D forms with d. Residues, ends and D or L forms follow the SMILES beside them. Groups on a side chain read outwards from the residue. *: point of attachment. dPhe(4-Cl) = N[C@H](Cc1ccc(Cl)cc1)C(=O)O; NEt2 = CCN(CC)*

Assay [1] has as its system human tumour cell lines. The assay can be described thus: Inhibition of colony formation (Example 48), comparison with the control D-Trp^6-hGnRH. The class given is cell-based. The following applies: data of Table VIII. On the procedure:
(§1) The examination gives accurate information about the cell-damaging effect of the substance tested as a function of varying doses. The treatment was carried out once; the colonies formed from the surviving cells were counted after 8 - 12 days. […] A part of the arrested cells again entered the cycle, another part of them might be destroyed (apoptosis). […] In the case of a dose-response investigation, colonies containing less than 15 cells were not counted. 300 cells were put into each Petri dishes of 3.5 cm in diameter. The treatment was once carried out 24 hours after setting, then the colonies formed were counted after 8 - 12 days. The cells were treated once after 24 hours with 1-50 µM of various GnRH analogues of Examples above or with 1 - 50 µM of GnRH-III, respectively. The percentages of inhibition obtained on MCF-7, MDA-MB-231, PC3 and Ishikawa cells, respectively, together with the dose of the active agent used are shown in Table VIII.
In these studies the D-Trp^6-hGnRH analogue (Sigma Co.) commonly used in the tumour therapy was employed as control.

The test system of assay [2] is human tumour cell lines. The class given is cell-based. The following applies: 30 µM. On the procedure:
After being treated with trypsin, 300.000 each of MCF-7, MDA-MB-231, PC3 or Ishikawa cells, respectively, were passed into Petri dishes of 10 cm in diameter. Starting from the day following the setting, the cells were treated with 1-50 µM of the GnRH analogue in the exponential growth phase. During the experiment lasting for 5 days, the cells were treated in every two days with the peptide hormone dissolved in the nutrient medium, then the cell count was determined on the sixth day.

For assay [3], the system named is PC3 human prostate carcinoma cell line. The assay can be described thus: Inhibition of colony formation (dose-survival relation, Example 18). It is filed as cell-based. The procedure:
(§2) In the case of cytostatics the cell-damaging effect is not cell-specific. […] One part of the arrested cells again go into the cycle, the other part may perish (apoptosis). […] The investigations were carried out on MCF-7 and MDA-MB-231 human mammary carcinoma cell lines, PC3 human prostate 15 carcinoma cell line and Ishikawa human endometrium carcinoma cell line. Three hundred cells were set into Petri dishes of 3.5 cm in diameter each. The treatment was carried out once, 24 hours following the explantation, then the colonies formed were counted after 9 to 12 days.

Assay [4] has as its system Ishikawa human endometrium carcinoma cell line. The assay is described as above. The class given is cell-based. On the procedure:
as §2

The test system of assay [5] is MDA-MB-231 human mammary carcinoma cell line. Described as above. The class given is cell-based. The following applies: concentration not given. The procedure:
as §2

In assay [6] the test system is MCF-7 human mammary carcinoma cell line. The description is as above. It is filed as cell-based. The following applies: concentration not given. The procedure: as §2
Assay [7] concerns Ishikawa. Description: Inhibition of colony formation by GnRH analogues (dose-survival, Example 48). It is filed as cell-based, human. The following applies: 50 µM. On the procedure:
as §1

The subject of another assay is MCF-7. The assay is described as above. It is filed as cell-based, human. The settings on record: treated once. The procedure:
as §1

Assay [8] has as its system PC3. The description is as above. It is filed as cell-based, human. On the procedure:
as §1

For the next assay, the system named is MDA-MB-231. The description is as above. It is filed as cell-based, human. On the procedure: as §1
The next assay concerns cellular immune response. Description: Cellular immune response (rosette formation against BRBC antigen). It is filed as in vivo. The settings on record: mice; 100 µg/mouse. An excerpt:
(§3) The immunosuppressive side effect of cytostatics used in tumour therapy is commonly known. This effect can be compensated to a certain grade by various immunostimulants (endotoxin, levamisole). Polypeptides with much […] molecular weights (about 40,000 to 80,000) are also capable of protecting against immunosuppressive effect [Gaál et al: J. Biol. Resp. Modif., 5, 148-159 (1986)]. The molecular weight of the novel polyanionic P-GFLG-OH macromolecule tested by us is about 10,000, that of MI-1892 is about 2000, i.e. relatively low; therefore, their immunostimulatory activity was unexpected.

The subject of a further assay is MCF-7 xenograft. The assay can be described thus: In vivo antitumour effect on MCF-7 xenograft in immunosuppressed mice. Set-up: species or system CBA/Ca mice. The following applies: MCF-7 xenograft; for Tumour volume as control (%): MI-1892 2 x 25 µg. The procedure: (§4) The immunosuppression of mice was carried out by using the method of Steel et al. [Br. J. Cancer, 37, 224-230 (1978)]. Immunosuppression and xeno-transplantation
(§5) CBA-Ca female mice of about 6 weeks old were thymectomized and then, after one week, they were irradiated with 60Co (whole body irradiation; the lethal dose is 9.5 Gray). Within 24 hours 3 to 5 x 10^5 myelocytes were injected into the animals. Beneath the skin of the immunosuppressed mice 2 x 10^7 tumour cells or, in the case of later passages, […] were implanted. […] The treatment with steroid hormone was stopped by at least one week before beginning the investigation.
In the case of MCF-7 tumours (xenografts) the examinations were carried out with passages being in the phase of the 37th and 38th, respectively, transplantations.
In the case of mice bearing MCF-7 xenograft, the treatment was begun in the 4th week following xeno-transplantation.
(§6) Recent investigations have begun on 28 animals bearing MCF-7 xenograft and on 28 animals bearing MDA-MB-231 xenograft. On animals bearing MCF-7 tumour the treatment was commenced in the 5th week following xeno-transplantation; the tumour volume was 205 to 225 mm^3. On animals bearing MDA-MB-231 tumour, the treatment was started in the 4th week after xeno-transplantation with a tumour volume of 140 to 150 mm^3. […] The control groups were daily treated with physiological saline s.c. (Each treated group consisting of 7 animals).

Assay [9] deals with PC3. Description: In vitro inhibition of cell proliferation (Example 19). It is filed as cell-based, human. The following applies: 30 µM, peptide alone, two treatments on days 2 and 4. The procedure:
(§7) The procedure of treatment was as follows. After trypsinization the cells, 400,000 cells of MCF-7, MDA-MB-231 human mammary carcinoma, PC3 human prostate carcinoma or Ishikawa human endometrium tumour each were passed into Petri dishes of 10 cm in diameter. Starting from the day following transfer, the cells were treated with the substances to be tested in solution prepared with the nutrient medium during the exponential growth phase. The cultures were treated with 1 to 50 µM (calculated for the total volume of the culture) or MI-1544 GnRH antagonist, MI-1892 chicken GnRH antagonist or SJ-1004 GnRH antagonist analogues as well as synthetic lamprey GnRH-III hormone every two days and the cell count was determined on the 7th day.

Another assay has as its system MDA-MB-231 xenograft. The assay can be described thus: In vivo antitumour effect on MDA-MB-231 xenograft in immunosuppressed mice. The following applies: Table V. Set-up: species or system CBA/Ca mice. On the procedure:
as §4, §5, §6
A more recent study was started on 28 animals bearing MDA-MB-231 xenograft. The treatment was begun in the 4th or 5th week following xenotransplantation. The tumour volume was 0.165 to 0.194 cm^3. […] (For treatment of the control group, see the preceding Examples). Each group consisted of 7 animals.

The next assay deals with humoral immune response. The assay can be described thus: Humoral immune response (antibody production of B-lymphocytes). It is filed as in vivo. The settings on record: mice.
Source text: as §3

In another assay the test system is MXT mouse mammary tumour. The assay can be described thus: In vivo antitumour effect on mice bearing MXT mouse mammary tumour. Set-up: species or system CBA/Ca mice. The procedure: The MXT mouse mammary carcinoma contains ER and PgR proteins; furthermore, it contains also GnRH receptors; therefore, this in vivo tumour model is suitable for studying both the direct and indirect effects. The treatment of mice bearing MXT mammary tumour was commenced on the day following transplantation. […] Table VI The animals were daily treated in s.c. route starting from the day following transplantation of MXT mouse mammary tumour. […] MI-1544: 75 µg/day/animal; MI-1892: 75 µg/day/animal.

Assay [10] deals with Ishikawa. The settings on record: 30 µM, peptide alone, two treatments on days 2 and 4. The procedure: as §7, with “antagonist analogues as well as synthetic lamprey GnRH-III hormone every two days and the cell count was determined” left out
The mark [11] stands for this setting: treatment week 4, MI-1892 2x25 µg daily s.c.
Where [12] appears, read: treatment week 6, MI-1892 2x25 µg, conjugates 1x50 µg daily s.c.
The mark [13] stands for this setting: MXT mouse mammary tumour, Treatment weeks: 13, 1x75 µg daily s.c.
[14] abbreviates: MXT mouse mammary tumour, Treatment weeks: 20, 1x75 µg daily s.c.

`NCCCC[C@H](NC(=O)[C@H](Cc1c[nH]c2ccccc12)NC(=O)[C@H](Cc1c[nH]cn1)NC(=O)[C@@H]1CCC(=O)N1)C(=O)N[C@@H](Cc1c[nH]cn1)C(=O)N[C@@H](CC(=O)O)C(=O)N[C@@H](Cc1c[nH]c2ccccc12)C(=O)N[C@@H](CCCCN)C(=O)N1CCC[C@H]1C(=O)NCC(N)=O` [6. Lys^4-GnRH-III, Lys^4-GnRH-III]: the “inhibitory effect compared with the control D-Trp^6-hGnRH” value in the assay with human tumour cell lines [1] is reported as “exceeded the inhibitory effect of control”. In addition, the proliferation-inhibiting effect in the assay with human tumour cell lines [2] is given as 27-31%. The “inhibition of colony formation” value in [3] (concentration not given) is recorded as “did not show any inhibition”; in assay [4] (concentration not given), 21%; in assay [5] it was 35%; in assay [6], 40%; in the assay with PC3 [8] (within the dose range used (1-50 µM)) it was “did not influence”. Moreover, the “% Inhibition of the colony formation” value in the assay on Ishikawa [7] is 21%; in the assay with MCF-7 (10 µM), 15%; in the assay with MCF-7 (50 µM), 40%; with PC3 [8] (50 µM), 0%; with MDA-MB-231 (10 µM) it was 18%; in the assay on MDA-MB-231 (50 µM) it was 35%. Further, in the assay with MDA-MB-231 (50 µM, listed as Example 31, 50 µM), the “% Inhibition of the colony formation” value is reported as 35-42%.

In the case of `CCN(CC)C(=O)[C@H](CC(=O)N[C@@H](CC(C)C)C(=O)N[C@@H](CCC(N)=O)C(=O)N1CCC[C@H]1C(=O)N[C@H](C)C(N)=O)NC(=O)[C@H](CCCCN)NC(=O)[C@H](CO)NC(=O)[C@@H](Cc1c[nH]c2ccccc12)NC(=O)[C@@H](Cc1ccc(Cl)cc1)NC(=O)[C@@H](Cc1c[nH]c2ccccc12)NC(C)=O` [MI-1892, Ac-D-Trp^1,3,D-Cpa^2,Lys^5,[β-Asp(DEA)]^6,D-Ala^10-hGnRH, reference compound] (Ac-[dW][dPhe(4-Cl)][dW]SKD([Leu-Gln-Pro-dA-NH2])-NEt2), in the assay with cellular immune response, the “increase of the cellular immune response” value is reported as “two-fold”. For the same molecule, the “% Inhibition of colony formation” value was 5% in assay [3] (50 µM) and 10% in [4] (50 µM). Also, the “decrease in the tumour volume in comparison to controls” value with MCF-7 xenograft (first study, end of 4th week, MI-1892 2 x 25 µg daily, conjugates 50 µg daily once) was 20%. Also, the “Tumour volume as control (%)” value worked out at 78.5% in the assay on MCF-7 xenograft (treatment week 4); 79% with MCF-7 xenograft (treatment week 6, conjugates 1 x 50 µg); 75.5% with MDA-MB-231 xenograft (setting [11]); 78% with MDA-MB-231 xenograft (setting [12]); 49% in the assay with MXT mouse mammary tumour (setting [13]); 61% in the assay with MXT mouse mammary tumour (setting [14]). In addition, the “Tumour volume as control (%)” value in the assay on MXT mouse mammary tumour (day 9, 75 µg/day/animal s.c.) is 86%; in the assay on MXT mouse mammary tumour (day 11, 75 µg/day/animal s.c.), 58%; with MXT mouse mammary tumour (day 13, 75 µg/day/animal s.c.), 49%; with MXT mouse mammary tumour (day 17, 75 µg/day/animal s.c.), 62%; in the assay with MXT mouse mammary tumour (day 18, 75 µg/day/animal s.c.) it was 64%; in the assay on MXT mouse mammary tumour (day 20, 75 µg/day/animal s.c.), 61%. The “Tumour volume as control (%)” value is 50% with MXT mouse mammary tumour (day 24, 75 µg/day/animal s.c.) and 82% in the assay on MXT mouse mammary tumour (day 26, 75 µg/day/animal s.c.). The inhibition of proliferation came out at 33% in the assay on PC3 [9] and 14% with Ishikawa [10]. The Inhibition % is 24.5% with MDA-MB-231 xenograft (setting [11]), 22% in the assay with MDA-MB-231 xenograft (setting [12]), 51% in the assay with MXT mouse mammary tumour (setting [13]) and 39% in the assay on MXT mouse mammary tumour (setting [14]). In addition, the entries for the “increase of the humoral immune response” value in the assay on humoral immune response (50 µg/mouse) and in the assay with humoral immune response (100 µg/mouse) were “more than two-fold” and “three-fold”, respectively. In addition, the “Tumour volume (cm^3)” value with MXT mouse mammary tumour (day 9, 75 µg/day/animal s.c.) worked out at 0.61 cm^3; with MXT mouse mammary tumour (day 11, 75 µg/day/animal s.c.) it was 1.05 cm^3; in the assay on MXT mouse mammary tumour (day 13, 75 µg/day/animal s.c.), 1.59 cm^3; in the assay with MXT mouse mammary tumour (day 17, 75 µg/day/animal s.c.) it was 3.17 cm^3; with MXT mouse mammary tumour (day 18, 75 µg/day/animal s.c.), 4.8 cm^3; in the assay on MXT mouse mammary tumour (day 20, 75 µg/day/animal s.c.), 5.73 cm^3. Besides, the “Tumour volume (cm^3)” value with MXT mouse mammary tumour (day 24, 75 µg/day/animal s.c.) is given as 6.32 cm^3; in the assay with MXT mouse mammary tumour (day 26, 75 µg/day/animal s.c.) it was 11.30 cm^3.
